# Measured values as given in publication PMC6125496 (Antimicrobial Agents and Chemotherapy, 2018).
# pIC50: −log10 of the molar value. Where two headings read alike, the source gives them in different places. Non-standard residues stand in square brackets, D forms with d. Residues, ends and D or L forms follow the SMILES beside them. Dab(3S-OH) = NC[C@H](O)[C@H](N)C(=O)O; Phe(2-F) = N[C@@H](Cc1ccccc1F)C(=O)O; ΔZArg = N=C(N)NCC/C=C(\N)C(=O)O; dOrn = NCCC[C@@H](N)C(=O)O; Dab = NCC[C@H](N)C(=O)O
# Experiments:
# [1] = system: Staphylococcus aureus ATCC 29213; experiment: microbe, parasite or virus in culture
# Description: (§1) Reference strains are from the German Collection of Microorganisms and Cell Cultures (DSMZ), the American Type Culture Collection (ATCC), the National Collection of Type Cultures (NCTC), and the Medical and Molecular Microbiology, Faculty of Science and Medicine, University of Fribourg, Switzerland.
# [2] = system: Enterobacter aerogenes DSM 30053; experiment: microbe, parasite or virus in culture
# Description: as §1
# [3] = system: Citrobacter freundii DSM 30039; experiment: microbe, parasite or virus in culture
# Description: as §1
# [4] = system: Enterococcus faecalis DSM 2570; experiment: microbe, parasite or virus in culture
# Description: as §1
# [5] = system: Serratia marcescens DSM 17174; experiment: microbe, parasite or virus in culture
# Description: as §1
# [6] = system: Ciprofloxacin-resistant E. coli (19); experiment: microbe, parasite or virus in culture
# Description: as §1
# [7] = system: Enterococcus faecium DSM 20477; experiment: microbe, parasite or virus in culture
# Description: as §1
# [8] = system: Streptococcus pneumoniae DSM 2134; experiment: microbe, parasite or virus in culture
# Description: as §1
# [9] = system: Klebsiella pneumoniae NCTC 13439; experiment: microbe, parasite or virus in culture
# Description: as §1
# [10] = system: Pseudomonas aeruginosa DSM 1117; experiment: microbe, parasite or virus in culture
# Description: as §1
# [11] = system: Klebsiella pneumoniae (56); experiment: microbe, parasite or virus in culture
# Description: as §1
# [12] = system: Escherichia coli BAA-2469; experiment: microbe, parasite or virus in culture
# Description: as §1
# [13] = system: Klebsiella pneumoniae ATCC BAA-1904; experiment: microbe, parasite or virus in culture
# Description: as §1
# Escherichia coli (101) = experiment: microbe, parasite or virus in culture; details: 101 clinical isolates
# Description: as §1
# [14] = system: Citrobacter freundii (16); experiment: microbe, parasite or virus in culture
# Description: as §1
# [15] = system: Enterobacter cloacae DSM 14563; experiment: microbe, parasite or virus in culture
# Description: as §1
# [16] = system: Escherichia coli ATCC 25922; experiment: microbe, parasite or virus in culture
# Description: as §1
# [17] = system: Escherichia coli BAA-2471; experiment: microbe, parasite or virus in culture
# Description: as §1
# [18] = system: Ciprofloxacin-resistant K. pneumoniae (27); experiment: microbe, parasite or virus in culture
# Description: as §1
# [19] = system: Acinetobacter baumannii ATCC 19606; experiment: microbe, parasite or virus in culture
# Description: as §1
# [20] = system: Klebsiella pneumoniae ATCC BAA-1905; experiment: microbe, parasite or virus in culture
# Description: as §1
# [21] = system: Citrobacter kozeri DSM 4595; experiment: microbe, parasite or virus in culture
# Description: as §1
# [22] = system: Staphylococcus epidermidis ATCC 12228; experiment: microbe, parasite or virus in culture
# Description: as §1
# [23] = system: Gentamicin-resistant K. pneumoniae (16); experiment: microbe, parasite or virus in culture
# Description: as §1
# [24] = system: Enterobacter cloacae (13); experiment: microbe, parasite or virus in culture
# Description: as §1
# [25] = system: Stenotrophomonas maltophilia ATCC 13637; experiment: microbe, parasite or virus in culture
# Description: as §1
# [26] = system: Klebsiella pneumoniae NCTC 13443; experiment: microbe, parasite or virus in culture
# Description: as §1
# [27] = system: Klebsiella pneumoniae ATCC 43816; experiment: microbe, parasite or virus in culture
# Description: as §1
# [28] = system: Klebsiella pneumoniae NCTC 13442; experiment: microbe, parasite or virus in culture
# Description: as §1
# [29] = system: Enterobacter cloacae 10.72; details: Ambler class C carbapenem resistant; AmpC overexpressed + TEM-1 + OXA-1
# Description: as §1
# [30] = system: Klebsiella pneumoniae DUB; details: Ambler class D carbapenemase; OXA-48 + CTX-M15 + TEM-1 + SHV-1 + OXA-1 + CMY-2
# Description: as §1
# [31] = system: human renal proximal tubular epithelial cells (HRPTEpiC); experiment: Multiplexed HRPTEpiC cytotoxicity assay (cell viability, KIM-1, HSP27)
# Protocol: The multiplexed cytotoxicity assay on human renal proximal tubule epithelial cells (HRPTEpiC) was conducted by Eurofins Panlabs (Eurofins Panlabs, Inc., St. Charles, MO) by using an image-based high content analysis (HCA) technique where cells were fixed and stained with nuclear dye to visualize nuclei and fluorescently labeled antibodies to detect drug-induced cellular injury and cellular stress arising from oxidative and chemical stress. Cells were seeded into 384-well plates and grown in RPMI 1640, 10% fetal bovine serum (FBS), 2 mM L-alanyl-L-glutamine, and 1 mM sodium pyruvate in a humidified atmosphere of 5% CO2 at 37°C. […] Compounds were serially diluted 3.16-fold and assayed over 10 concentrations in a final assay concentration of 0.5% dimethyl sulfoxide (DMSO) from 100 μM to 3.7 nM. At the same time, a time zero untreated cell plate was generated. After a 48-h incubation period, cells were fixed and stained with fluorescently labeled antibodies and nuclear dyed to allow visualization of nuclei, injured cells, and stressed cells. Injured cells were detected using a KIM-1 (kidney injury molecule 1) antibody. Stressed cells were detected using an anti-HSP27 (heat shock protein 27) antibody. Cell proliferation was measured by the signal intensity of the incorporated nuclear dye. The cell proliferation assay output was referred to as the relative cell count. To determine the cell proliferation endpoint, the cell proliferation data output was transformed to percentage of control (POC) using the following formula: POC = relative cell count in compound wells/relative cell count in vehicle wells × 100. The signal intensity of the incorporated cellular stress and injury measurements were normalized with the relative cell count from each well. Automated fluorescence microscopy was carried out using a Molecular Devices ImageXpress micro-imager, and images were collected with a 4× objective.
# [32] = 19 ciprofloxacin-resistant isolates
# [33] = Ambler class B carbapenemase, NDM-1
# [34] = 27 ciprofloxacin-resistant isolates
# [35] = 16 gentamicin-resistant isolates
compound,measurement,setting,value
N=C(N)NCC/C=C(\NC(=O)[C@H](CCCCN)NC(=O)[C@H](Cc1ccccc1F)NC(=O)[C@@H]1CCCN1C(=O)[C@@H](CCCN)NC(=O)CNC(=O)[C@H](CCN)NC(=O)[C@@H](NC(=O)[C@@H](N)CCCCN)[C@@H](O)CN)C(=O)O [NOSO-502] (H-K[Dab(3S-OH)][Dab]G[dOrn]P[Phe(2-F)]K[ΔZArg]-OH),MIC,[1]; ATCC 29213,1 µg/mL
same,MIC,[2]; DSM 30053,2 µg/mL
same,MIC,[3]; DSM 30039,2 µg/mL
same,MIC,[4]; DSM 2570,>64 µg/mL
same,MIC,[5]; DSM 17174,4 µg/mL
same,MIC range,[6]; Ciprofloxacin-resistant (19),2 to 32 µg/mL
same,MIC,[7]; DSM 20477,64 µg/mL
same,MIC,[8]; DSM 2134,64 µg/mL
same,MIC,[9]; NCTC 13439,1 µg/mL
same,MIC,[10]; DSM 1117,>64 µg/mL
same,MIC range,[11]; 56,0.5 to 16 µg/mL
same,MIC,[12]; BAA-2469,2 µg/mL
same,MIC,[13]; ATCC BAA-1904,2 µg/mL
same,MIC 50%,Escherichia coli (101),4 µg/mL
same,MIC 90%,Escherichia coli (101),8 µg/mL
same,MIC range,[14],1 to 4 µg/mL
same,MIC,[15]; DSM 14563,2 µg/mL
same,MIC,[16]; ATCC 25922,4 µg/mL
same,MIC,[17]; BAA-2471,4 µg/mL
same,MIC range,[18]; Ciprofloxacin-resistant (27),0.5 to 16 µg/mL
same,MIC,[19]; ATCC 19606,>64 µg/mL
same,MIC,[20]; ATCC BAA-1905,1 µg/mL
same,MIC,[21]; DSM 4595,2 µg/mL
same,MIC,[22]; ATCC 12228,0.25 µg/mL
same,MIC range,[23]; Gentamicin-resistant (16),0.5 to 2 µg/mL
same,MIC range,[24]; 13,1 to 4 µg/mL
same,MIC,[25]; ATCC 13637,16 µg/mL
same,MIC,[26]; NCTC 13443,1 µg/mL
same,MIC,[27]; ATCC 43816,1 µg/mL
same,MIC,[28]; NCTC 13442,1 µg/mL
same,MIC,[29],1 µg/mL
same,MIC,[30],0.5 µg/mL
same,concentration inducing a significant (5-fold) increase of KIM-1 level,[31]; tested up to 100 μM,> 100 µM
polymyxin B [PMB],MIC,[1]; reference strain,16 µg/mL
same,MIC,[2]; reference strain,0.5 µg/mL
same,MIC,[3]; reference strain,0.5 µg/mL
same,MIC,[4]; reference strain,>32 µg/mL
same,MIC,[5]; reference strain,>32 µg/mL
same,MIC 50%,[6]; [32],0.5 µg/mL
same,MIC 90%,[6]; [32],1 µg/mL
same,MIC range,[6]; [32],0.5 to 32 µg/mL
same,MIC,[7]; reference strain,>32 µg/mL
same,MIC,[8]; reference strain,>32 µg/mL
same,MIC,"[9]; Ambler class B carbapenemase, VIM-1",0.5 µg/mL
same,MIC,[10]; reference strain,1 µg/mL
same,MIC 50%,[11]; 56 clinical isolates,0.5 µg/mL
same,MIC 90%,[11]; 56 clinical isolates,4 µg/mL
same,MIC range,[11]; 56 clinical isolates,0.25 to 32 µg/mL
same,MIC,[12]; [33],0.25 µg/mL
same,MIC,"[13]; Ambler class A carbapenemase, KPC-3",0.5 µg/mL
same,MIC 50%,Escherichia coli (101),0.5 µg/mL
same,MIC 90%,Escherichia coli (101),1 µg/mL
same,MIC 50%,[14]; 16 clinical isolates,0.5 µg/mL
same,MIC 90%,[14]; 16 clinical isolates,1 µg/mL
same,MIC range,[14]; 16 clinical isolates,0.25 to 1 µg/mL
same,MIC,[15]; reference strain,1 µg/mL
same,MIC,[16]; reference strain,0.5 µg/mL
same,MIC,[17]; [33],0.25 µg/mL
same,MIC 50%,[18]; [34],0.5 µg/mL
same,MIC 90%,[18]; [34],1 µg/mL
same,MIC,[19]; reference strain,0.5 µg/mL
same,MIC,"[20]; Ambler class A carbapenemase, KPC-2",0.5 µg/mL
same,MIC,[21]; reference strain,0.25 µg/mL
same,MIC,[22]; reference strain,16 µg/mL
same,MIC 50%,[23]; [35],0.5 µg/mL
same,MIC 90%,[23]; [35],1 µg/mL
same,MIC range,[23]; [35],0.5 to 1 µg/mL
same,MIC 50%,[24]; 13 clinical isolates,0.5 µg/mL
same,MIC 90%,[24]; 13 clinical isolates,8 µg/mL
same,MIC range,[24]; 13 clinical isolates,0.5 to 16 µg/mL
same,MIC,[25]; reference strain,1 µg/mL
same,MIC,[26]; [33],0.5 µg/mL
same,MIC,[27]; reference strain,1 µg/mL
same,MIC,"[28]; Ambler class D carbapenemase, OXA-48",0.5 µg/mL
same,MIC,[29],0.5 µg/mL
same,MIC,[30],0.5 µg/mL
same,pIC50,"[31]; read-out: cytotoxicity IC50 (cell viability), 48-h incubation",4.93
same,concentration inducing a significant (5-fold) increase of HSP27 level,[31]; tested up to 100 μM,9.7 µM
same,concentration inducing a significant (5-fold) increase of KIM-1 level,[31]; tested up to 100 μM,12.1 µM
